Assays:
intact human islets = assay: Intact human islet assay (Ki67, cell numbers); type: cell-based; settings: 8 days
Method: Rat or human β-cell proliferation assays were performed using dissociated primary rat or human islets. Islets were treated with the indicated compounds in the presence of EdU for 4 days before fixing and staining. EdU incorporation was measured by click reaction with AlexaFluor-647-azide (Invitrogen). For intact islet assays, primary human islets were treated for 7 or 8 days (as indicated in the legend). Rat dissociated islets were cultured in RPMI medium containing 10% FBS and human dissociated islets were cultured in PIM-S media (Prodo laboratories) with 10% human […].

primary human islets = assay: TUNEL in β-cells; type: cell-based; settings: 4 days in the presence of EdU
Method: Supplementary Figure 2. […] (a-c) Primary human […]
for 4 days in the presence of EdU. […]
effects on TUNEL in EdU positive cells while CDK6 and Cyclin D1 increased TUNEL staining in EdU positive cells (consistent with previous reports) (n=3; mean ± SD). (d) Human islets were […]
for 16 hrs in the presence of EdU. Following treatment, cells were analyzed for TUNEL, and stained for insulin and DAPI.
TUNEL without EdU incorporation. […]
(1 picture or pasted object on this page, not shown here)

Fyn = biological target: T1, Fyn (Homo sapiens, UniProt P06241); assay: Kinase profiling; type: biochemical; settings: read-out: Percent inhibition, Fyn
T1 construct: purchased Ambit KINOMEscan
Excerpt: ; Fig. 5a; Supplementary Table 1). We focused on Dyrk1a because other kinases inhibited by aminopyrazine compounds were not highly expressed in β-cells and because Dyrk1a was known to inhibit the NFAT pathway that was previously implicated in β-cell proliferation. We used molecular modelling to dock the aminopyrazine compounds into the published structure of Dyrk1a (protein databank accession code 2vx3.pdb; Fig. 5b).

[1] = tested on: β-catenin nuclear localization in primary rat islets; assay: β-Catenin nuclear translocation; type: cell-based
Method: At the end of the treatment, cells were fixed with 4% paraformaldehyde, blocked and permeabilized, and stained by standard immunofluorescence techniques for β-catenin (Cell signaling, #9562L; dilution 1:500), NFATc1 (Santa Cruz, rabbit polyclonal, SC-7294; dilution 1:200) or NFAT3c (Santa Cruz, SC-8321; dilution 1:200) and nuclear DNA was stained with DAPI (Molecular Probes; dilution 1:1,000). EdU incorporation was measured by click reaction with AlexaFluor-647-azide (Invitrogen). Plates were imaged with confocal microscope and analysed by Metamorph (Molecular Devices).

Dyrk1a = biological target: T2, Dyrk1a (Homo sapiens, UniProt Q13627); assay: Kinase profiling; type: biochemical; settings: Conc 1000 nM; read-out: Percent inhibition, DYRK1a
T2 construct: purchased Ambit KINOMEscan

T1 sequence (P06241 whole entry): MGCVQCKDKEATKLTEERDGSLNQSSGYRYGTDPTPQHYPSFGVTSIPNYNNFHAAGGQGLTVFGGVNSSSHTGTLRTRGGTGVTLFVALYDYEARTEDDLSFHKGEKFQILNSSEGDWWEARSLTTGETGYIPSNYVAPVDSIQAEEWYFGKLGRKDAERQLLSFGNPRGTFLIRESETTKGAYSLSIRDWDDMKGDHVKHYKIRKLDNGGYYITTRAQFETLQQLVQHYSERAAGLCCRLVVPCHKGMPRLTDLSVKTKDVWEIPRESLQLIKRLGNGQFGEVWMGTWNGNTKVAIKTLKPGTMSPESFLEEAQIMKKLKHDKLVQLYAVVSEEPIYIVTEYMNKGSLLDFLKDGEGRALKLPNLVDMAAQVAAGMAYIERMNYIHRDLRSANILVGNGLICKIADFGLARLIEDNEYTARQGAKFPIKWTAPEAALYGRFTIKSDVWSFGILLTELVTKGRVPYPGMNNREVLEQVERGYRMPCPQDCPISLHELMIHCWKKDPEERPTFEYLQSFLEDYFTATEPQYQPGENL

For `CC(C)Oc1ccc(F)c(-c2cnc(N)c(C(=O)Nc3cnccc3N3CCC[C@@H](C(=O)O)C3)n2)c1` [GNF4877], the “increase in the number of Ki67-positive insulin-positive cells” value (intact human islets) was 20 fold, the “TUNEL-positive β-cells” value (primary human islets) was “unchanged” and the inhibition at 0.2 µM (Fyn; Conc 200 nM) was 26%. The inhibition at 1 µM (Fyn; Conc 1000 nM) was 77%.
For `Nc1ncc(-c2ccccc2)nc1C(=O)Nc1cnccc1N1CCC(C(=O)O)CC1` [GNF7156], the β-catenin nuclear translocation [1] was “induced β-catenin nuclear translocation” and the inhibition at 1 µM (Dyrk1a) was 98%.
